In US11180474B2 (BRISTOL-MYERS SQUIBB COMPANY, priority 2016, dated 2021):

Columns and labels:
human TLR7 = target: T1, human TLR7 (Homo sapiens, UniProt Q9NYK1); assay: TLR7 inhibition reporter assay (HEK-Blue cells, SEAP reporter, gardiquimod stimulation); format: cell-based; conditions: HEK-Blue cells overexpressing human TLR7, gardiquimod 7.5 μM
T1 construct: host or cells: HEK-Blue cells
T1 sequence (Q9NYK1 27-1049): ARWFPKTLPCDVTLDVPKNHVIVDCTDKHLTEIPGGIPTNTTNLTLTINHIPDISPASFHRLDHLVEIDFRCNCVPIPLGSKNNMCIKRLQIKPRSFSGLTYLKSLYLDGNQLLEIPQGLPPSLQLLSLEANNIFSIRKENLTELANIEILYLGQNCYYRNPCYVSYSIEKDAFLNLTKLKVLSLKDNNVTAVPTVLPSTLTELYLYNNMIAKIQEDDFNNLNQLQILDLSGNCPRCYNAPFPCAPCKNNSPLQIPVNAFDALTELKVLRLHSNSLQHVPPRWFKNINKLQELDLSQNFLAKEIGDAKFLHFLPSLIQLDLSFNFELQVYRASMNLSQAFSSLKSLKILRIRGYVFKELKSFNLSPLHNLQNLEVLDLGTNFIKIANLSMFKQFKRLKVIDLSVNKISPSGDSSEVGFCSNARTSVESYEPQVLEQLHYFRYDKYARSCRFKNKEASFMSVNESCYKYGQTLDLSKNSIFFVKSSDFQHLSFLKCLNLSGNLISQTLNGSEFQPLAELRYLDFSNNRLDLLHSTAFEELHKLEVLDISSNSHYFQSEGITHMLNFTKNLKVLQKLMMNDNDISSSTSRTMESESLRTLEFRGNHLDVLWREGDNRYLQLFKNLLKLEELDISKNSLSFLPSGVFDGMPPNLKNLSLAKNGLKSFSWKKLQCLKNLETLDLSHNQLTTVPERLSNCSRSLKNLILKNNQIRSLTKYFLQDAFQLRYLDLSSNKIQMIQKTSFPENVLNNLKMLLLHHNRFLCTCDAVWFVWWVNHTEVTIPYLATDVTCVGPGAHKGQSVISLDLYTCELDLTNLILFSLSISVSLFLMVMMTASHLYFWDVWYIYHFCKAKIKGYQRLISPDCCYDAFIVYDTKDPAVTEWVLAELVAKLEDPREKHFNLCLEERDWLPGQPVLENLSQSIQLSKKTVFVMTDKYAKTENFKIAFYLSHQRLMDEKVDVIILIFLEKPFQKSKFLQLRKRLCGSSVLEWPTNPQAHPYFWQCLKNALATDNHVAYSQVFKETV
Procedure, shortened: (§1)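 HEK-Blue reporter cells (15,000/well TLR7, 20,000 TLR8) exposed to compound over 0.05 nM–50 μM, agonist-stimulated (R848 for TLR8, gardiquimod for TLR7), 22 h at 37 °C, 5% CO2. SEAP read with HEK-Blue Detection; % inhibition relative to agonist-plus-DMSO and known-inhibitor controls.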

human TLR8 = target: T2, human TLR8 (Homo sapiens, UniProt Q9NR97); assay: TLR8 inhibition reporter assay (HEK-Blue cells, SEAP reporter, R848 stimulation); format: cell-based; conditions: HEK-Blue cells overexpressing human TLR8, R848 15.9 μM
T2 construct: host or cells: HEK-Blue cells
T2 sequence (Q9NR97 27-1041): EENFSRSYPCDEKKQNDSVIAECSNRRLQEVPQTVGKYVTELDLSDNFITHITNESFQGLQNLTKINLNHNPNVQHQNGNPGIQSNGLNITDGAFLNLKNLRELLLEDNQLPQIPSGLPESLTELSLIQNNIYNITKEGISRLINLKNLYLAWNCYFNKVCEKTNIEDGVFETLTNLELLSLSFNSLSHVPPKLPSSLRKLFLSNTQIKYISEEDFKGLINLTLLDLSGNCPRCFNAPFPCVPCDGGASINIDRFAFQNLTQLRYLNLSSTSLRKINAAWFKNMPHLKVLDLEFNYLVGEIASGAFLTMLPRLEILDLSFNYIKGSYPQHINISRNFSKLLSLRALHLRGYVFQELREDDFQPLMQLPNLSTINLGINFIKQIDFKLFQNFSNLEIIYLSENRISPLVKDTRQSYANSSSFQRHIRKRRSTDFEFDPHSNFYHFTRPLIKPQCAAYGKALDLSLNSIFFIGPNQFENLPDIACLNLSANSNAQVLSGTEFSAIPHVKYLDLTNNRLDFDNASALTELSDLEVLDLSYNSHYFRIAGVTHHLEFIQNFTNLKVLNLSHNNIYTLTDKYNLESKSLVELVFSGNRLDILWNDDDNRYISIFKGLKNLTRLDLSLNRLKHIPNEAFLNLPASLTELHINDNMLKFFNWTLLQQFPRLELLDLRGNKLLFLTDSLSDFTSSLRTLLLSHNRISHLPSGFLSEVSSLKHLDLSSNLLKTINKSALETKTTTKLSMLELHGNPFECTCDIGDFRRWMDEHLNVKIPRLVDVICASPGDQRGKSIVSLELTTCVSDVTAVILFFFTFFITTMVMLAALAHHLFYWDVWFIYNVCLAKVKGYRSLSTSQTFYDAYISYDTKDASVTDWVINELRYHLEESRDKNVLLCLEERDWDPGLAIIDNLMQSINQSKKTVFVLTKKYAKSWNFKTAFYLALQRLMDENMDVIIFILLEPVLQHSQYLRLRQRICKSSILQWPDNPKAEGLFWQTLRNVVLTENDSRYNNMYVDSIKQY
Procedure, shortened: as §1

| Structure (SMILES) | IC50 (human TLR7) | IC50 (human TLR8) |
| --- | --- | --- |
| COc1ccc(-c2[nH]c3ccc(C4CCN(CC(=O)N(C)CCCN(C)C)CC4)cc3c2CC(F)(F)F)cc1OC [Example 365, 2-(4-(2-(3,4-dimethoxyphenyl)-3-(2,2,2-trifluoroethyl)-1H-indol-5-yl)piperidin-1-yl)-N-(3-(dimethylamino)propyl)-N-methylacetamide] | 14 nM | 24 nM |
| COc1ccc(-c2[nH]c3ccc(C4CCN(CC(=O)NCC#N)CC4)cc3c2CC(F)(F)F)cc1OC [Example 381, N-(cyanomethyl)-2-(4-(2-(3,4-dimethoxyphenyl)-3-(2,2,2-trifluoroethyl)-1H-indol-5-yl)piperidin-1-yl)acetamide] | 63 nM | 76 nM |
